Data taken from patent US11801210B2, “Retinol replacement in skin treatment” (SYMRISE AG, priority 2018, dated 2023).

Assays:
[1] = system: three-dimensional (3D) epidermis model (keratinocytes); test: 3D epidermis model, thickness of the epidermis (H&E and Ki67 stained sections); type: cell-based; conditions: 0.01 μM; for Thickness (whole) / Thickness (without stratum corneum): epidermis in stained sections
Experimental: With such 3D assays significant information is obtained about the complex stratification and terminal differentiation process of keratinocytes in a multilayered epidermal tissue with barrier functionality.
Furthermore, paraffin sectioning and a H&E and Ki67 staining was performed. The thickness of the epidermis in the stained sections was measured and compared between MDI 101, all-trans Retinol, all in a concentration of 0.01 μM and the DMSO control (FIG. 1).

[2] = system: 3T3 swiss albino mouse fibroblasts; test: Cytotoxicity assay (TOX8 kit); type: cell-based; conditions: Mus musculus, Fibroblast; 3T3 fibroblasts, 48 h treatment; concentration in medium lethal for 50% of living cells
Experimental: (§1) The TOX8 (Sigma Aldrich) Kit was used to determine cytotoxicity retinoic acid, 3,3-dimethyl-2-oxobutyl ester (MDI 101) on 3T3 swiss albino mouse fibroblasts. The 3T3 were cultivated in DMEM medium (Capricorn) including 10% FBS, 1% Penicillin/Streptomycin and 100 nM sodium selenite at 37° C. and 5% CO2. For the cytotoxicity experiment, 3T3 were seeded into 96-well microtiter plate. After 24 hours incubation and a confluence of 30 to 40% the cells were treated with MDI 101 in four different concentrations for 48 h. Test substance was pre-diluted in DMSO, further dilutions were performed in equal medium with 5% FBS. After 48 h a microscopic estimation was carried out and the cells were incubated with TOX8-Kit for two hours at 37° C. and 5% CO2. The absorbance of a converted dye was measured by spectrophotometry at a wavelength of 600 nm. Bioreduction of the dye reduces the amount of its oxidized form (blue) and concomitantly increases the fluorescent intermediate (red), wherein the mechanism and applicability of the test is independent of the cell type. Cell viability was analyzed relative to the solvent-control. The inhibitory concentrations for 50% viability (IC50) and 80% (IC20) were calculated.
(§2) The specific concentration of MDI 101 in the cell culture medium, which is lethal for 20% (IC20) and for 50% (IC50) of living cells was determined: […]

[3] = Cytotoxicity assay (TOX8 kit); type: cell-based, mouse; conditions: mouse, 3T3 swiss albino mouse fibroblasts; 3T3 fibroblasts, 48 h treatment; concentration in medium lethal for 20% of living cells (80% viability)
Experimental: as §1, §2

[4] = Solubility and recrystallization in o/w emulsions (microscopy, polarized light); type: physicochemical
Experimental: Two pre-blends, A1 and A2, both containing 2.5 w/w % of Hydroxypinacolone Retinoate (MDI 101) were produced according to the above recipe. Three o/w emulsions (A, B and C) according to the following recipe were prepared: Heat Phases A and C separately up to 80° C. Disperse Phase B in A. Add Phase C to AB and emulsify by using an Ultra Turrax Stirrer (3 min, 6000 rpm). Add Phase D and neutralize. Allow to cool by using a vane stirrer. The emulsions were equal, except for the addition of MDI 101. […] As the pre-blends contain 2.5 wt.-% MDI 101, the final concentration of MDI 101 in the emulsions A, B and C was 0.05 wt.-% in all emulsions.

[5] = system: intracellular radicals (reactive oxygen species, ROS) in cells; test: Dichlorofluorescein (DCF) assay, oxidative stress; type: cell-based; conditions: for ROS mean value / ROS reduction: 24 h incubation, relative to control
Experimental: For the quantification of intracellular radicals, the dichlorofluorescein (DCF) assay was performed. […] By intracellular esterases and oxidation, the nonfluorescent H2DCFDA is converted to the highly fluorescent 2′,7′-dichlorofluorescein (DCF). The nonfluorescent fluorescin (2′,7′-dichlorofluorescein diacetate (DCFH-DA) pass the cell membranes. In the cytoplasm, it is splitted by intracellular esterases and cannot leave out of the cell in this form. The oxidation by intracellularly existing ROS (reactive oxygen species) modifies the molecule so that will become DCF and emit fluorescence.
Determination of the anti-oxidative capacity is performed in 96-well microplates from Nunc (Wiesbaden, Germany) and with the microplate reader “Spark” from Tecan (Crailsheim, Germany).
Cells are seeded in a black 96 well microplate with transparent bottom and incubated at 37° C. After 24 hours the supernatant is decanted and fresh media with 0.1% FBS is succeded. Further 24 hours later the supernatant is decanted again and the test samples are added and incubated for 24 hours. Varying concentrations of MDI 101 in the cell culture medium were tested. As a positive control Trolox is always co-tested. Then the DCF Assay is performed and the fluorescence is measured from bottom of well at EX/EM 485/528 nm. The antioxidative capacity is expressed in percent, which can be determined by rule of proportion in combination with the control.

[6] = ABTS+ assay, anti-oxidative capacity; type: biochemical; conditions: 10 min at 30° C., 734 nm
Experimental: For the determination of the anti-oxidative capacity, the ABTS+-Assay was performed. The assay principle bases on the reduction and the involved decolourization of the green coloured cationic radical 2,2′-Azinobis(3-ethylbenzothiazoline 6-sulfonic acid) (ABTS+) by antioxidants. The decolourization can be measured spectrophotometrically at 734 nm.
The determination of the anti-oxidative capacity is performed in 96-well microplates from Nunc (Wiesbaden, Germany) and with the microplate reader “Spark” from Tecan (Crailsheim, Germany).
Samples were incubated for 10 min at 30° C. with the 2,2′-Azinobis-(3-ethylbenzothiazoline-6-sulfonate (ABTS+) radical cation (Sigma, St. Louis, USA) prepared by reaction of ABTS+ with potassium persulfate. As a positive control Trolox is always co-tested. The degree of decolourization was determined spectrophotometrically at 734 nm by […]. Results are mean values from 2 independent experiments with quadruple determinations each.
The antioxidative capacity is expressed in IC50 values (concentration that scavenges 50% of the cationic radical relative to the untreated ABTS+ solution), which can be determined by a trend calculation.

[7] = system: cells (proliferation); test: CyQUANT Direct Cell Proliferation Assay; type: cell-based; conditions: 0.00005 mM; 72 hours; media with 6% FBS
Experimental: To evaluate the pro-proliferative activity of MDI 101, the CyQUANT® Direct Cell Proliferation Assay was performed. The CyQUANT® Direct assay is based on a cell-permeant DNA-binding dye in combination with a background suppression reagent. As DNA content is highly regulated, cell number estimates are very accurate. The masking dye blocks staining of dead cells and cells with compromised cell membranes, causing only staining of healthy cells. Therefore, the CyQUANT® Direct assay measures proliferation as well as cytotoxicity. The fluorescence can be measured spectrophotometrically from bottom of well with standard green filter sets or wavelengths (EX/EM 508/527 nm).
The proliferation capacity is performed in black 96-well microplates from Corning (Germany) and with the microplate reader “Spark” from Tecan (Crailsheim, Germany).
Cells are seeded in a black 96 well microplate with transparent bottom and incubated at 37° C. and 5% CO2. After 24 hours the supernatant is decanted and the samples are added in fresh media with 6% FBS. As a positive control KGF is always co-tested. […] Then the CyQUANT® Direct assay is performed and the fluorescence is measured from bottom of well at EX/EM 508/527 nm.
The proliferation probability is expressed in percent, which can be determined by rule of proportion in combination with the control.

Structure (SMILES) | Thickness (whole) [1] | Thickness (without stratum corneum) [1] | IC50 [2] | IC20 at 48 h [3] | Solubility after pre-solving in diisopropyl adipate ([4]; pre-solved in diisopropyl adipate, recrystallization could be avoided) | Solubility in cosmetic or pharmaceutical compositions (e.g. emulsions) ([4]; sole powder) | Effect on the thickness of the epidermis (in words) ([1]; compared with all-trans Retinol in the same concentration) | ROS mean value ([5]; 0.002 μM) | ROS reduction ([5]; 0.002 μM) | ROS mean value ([5]; 0.02 μM) | ROS reduction ([5]; 0.02 μM) | Anti-oxidative effect (in words) ([5]; concentrations which should have no cytotoxic effect) | Mean inhibition ([6]; 2 μM) | Mean inhibition ([6]; 25 μM) | Mean inhibition ([6]; 50 μM) | Mean inhibition ([6]; 250 μM) | Mean inhibition ([6]; 500 μM) | Mean proliferation compared to control (100%) [7]
CC1=C(/C=C/C(C)=C/C=C/C(C)=C/CO)C(C)(C)CCC1 [All-trans Retinol, reference compound] | 150 μm | 85 μm |  |  |  |  |  |  |  |  |  |  |  |  |  |  |  | 
CC1=C(/C=C/C(C)=C/C=C/C(C)=C/C(=O)OCC(=O)C(C)(C)C)C(C)(C)CCC1 [MDI 101, retinoic acid, 3,3-dimethyl-2-oxobutyl ester] | 157 μm | 112.5 μm | 263 µM | 171 µM | strongly improved the solubility | poor solubility | better than the effect of all-trans Retinol | 75% | 25% | 23% | 77.5% | anti-oxidative effect | 8.8% | 17.7% | 27.3% | 83.3% | 96.4% | 125%
